{
  "source": "PubChem BioAssay AID1259407",
  "about": "(Chemical Carcinogenesis Research Information System (CCRIS), 2018)",
  "system": "CCRIS mutagenicity, Ames/micronucleus/aberration tests",
  "experiment": "CCRIS mutagenicity studies",
  "key": {"[1]": {"settings": "Test System: AMES SALMONELLA TYPHIMURIUM, Strain/Indicator: TA100, Metabolic Activation: NONE, Method: PREINCUBATION"}},
  "note": "The source made the active and inactive calls. How the calls were made is not given here.",
  "data": [
    {"smiles": "CCCC=O", "values": [
      {"measurement": "mutagenic call", "setting": "End Point: IN VITRO CHROMOSOMAL ABERRATIONS, Test System: CHINESE HAMSTER OVARY CELLS, Metabolic Activation: NONE", "result": "inactive; negative"},
      {"measurement": "mutagenic call", "setting": "End Point: IN VITRO CHROMOSOMAL ABERRATIONS, Test System: CHINESE HAMSTER OVARY CELLS, Metabolic Activation: RAT, LIVER, S-9, AROCLOR 1254", "result": "inactive; negative"},
      {"measurement": "mutagenic call", "setting": "End Point: In vitro chromosomal aberrations, Test System: Chinese hamster lung (CHL/IU) cells, Metabolic Activation: Rat, Liver, S9, Phenobarbital and 5,6-benzoflavone", "result": "active; positive (structural changes). ploidy not dose related."},
      {"measurement": "mutagenic call", "setting": "[1]", "result": "inactive; negative"},
      {"measurement": "mutagenic call", "setting": "Test System: AMES SALMONELLA TYPHIMURIUM, Strain/Indicator: TA100, Metabolic Activation: RAT LIVER S-9, AROCLOR 1254, Method: PREINCUBATION", "result": "inactive; negative"},
      {"measurement": "mutagenic call", "setting": "Test System: AMES SALMONELLA TYPHIMURIUM, Strain/Indicator: TA102, Metabolic Activation: NONE, Method: PREINCUBATION", "result": "inactive; negative"},
      {"measurement": "mutagenic call", "setting": "Test System: AMES SALMONELLA TYPHIMURIUM, Strain/Indicator: TA102, Metabolic Activation: RAT LIVER S-9, AROCLOR 1254, Method: PREINCUBATION", "result": "inactive; negative"},
      {"measurement": "mutagenic call", "setting": "Test System: AMES SALMONELLA TYPHIMURIUM, Strain/Indicator: TA104, Metabolic Activation: NONE, Method: PREINCUBATION", "result": "inactive; negative"},
      {"measurement": "mutagenic call", "setting": "Test System: AMES SALMONELLA TYPHIMURIUM, Strain/Indicator: TA104, Metabolic Activation: RAT LIVER S-9, AROCLOR 1254, Method: PREINCUBATION", "result": "inactive; negative"},
      {"measurement": "mutagenic call", "setting": "Test System: CHINESE HAMSTER V-79, Strain/Indicator: V-79/6-THIOGUANINE (HGPRT), Metabolic Activation: NONE, Method: REPLATING", "result": "active; positive"},
      {"measurement": "mutagenic call", "setting": "Test System: CHINESE HAMSTER V-79, Strain/Indicator: V-79/OUABAIN (NA/K), Metabolic Activation: NONE, Method: REPLATING", "result": "active; positive"},
      {"measurement": "mutagenic call", "setting": "Test System: UDS HUMAN HEPATOCYTES, Strain/Indicator: THY INCORP, Metabolic Activation: NONE, Method: AUTORADIOGRAPHY", "result": "inactive; negative"},
      {"measurement": "mutagenic call", "setting": "Test System: UDS RAT HEPATOCYTES, Strain/Indicator: THY INCORP, Metabolic Activation: NONE, Method: AUTORADIOGRAPHY", "result": "active; positive"}
    ]},
    {"smiles": "CCCCCCc1ccc(-c2ccc(C#N)cc2)cc1", "values": [
      {"measurement": "mutagenic call", "setting": "Test System: AMES SALMONELLA TYPHIMURIUM, Strain/Indicator: TA97, Metabolic Activation: HAMSTER, LIVER, S-9, AROCLOR 1254 (10 OR 30%), Method: PREINCUBATION", "result": "inactive; negative"},
      {"measurement": "mutagenic call", "setting": "Test System: AMES SALMONELLA TYPHIMURIUM, Strain/Indicator: TA97, Metabolic Activation: NONE, Method: PREINCUBATION", "result": "inactive; negative"},
      {"measurement": "mutagenic call", "setting": "Test System: AMES SALMONELLA TYPHIMURIUM, Strain/Indicator: TA97, Metabolic Activation: RAT, LIVER, S-9, AROCLOR 1254 (10 OR 30%), Method: PREINCUBATION", "result": "inactive; negative"},
      {"measurement": "mutagenic call", "setting": "Test System: AMES SALMONELLA TYPHIMURIUM, Strain/Indicator: TA98, Metabolic Activation: HAMSTER, LIVER, S-9, AROCLOR 1254 (10 OR 30%), Method: PREINCUBATION", "result": "inactive; negative"},
      {"measurement": "mutagenic call", "setting": "Test System: AMES SALMONELLA TYPHIMURIUM, Strain/Indicator: TA98, Metabolic Activation: NONE, Method: PREINCUBATION", "result": "inactive; negative"},
      {"measurement": "mutagenic call", "setting": "Test System: AMES SALMONELLA TYPHIMURIUM, Strain/Indicator: TA98, Metabolic Activation: RAT, LIVER, S-9, AROCLOR 1254 (10 OR 30%), Method: PREINCUBATION", "result": "inactive; negative"},
      {"measurement": "mutagenic call", "setting": "Test System: AMES SALMONELLA TYPHIMURIUM, Strain/Indicator: TA100, Metabolic Activation: HAMSTER, LIVER, S-9, AROCLOR 1254 (10 OR 30%), Method: PREINCUBATION", "result": "inactive; negative"},
      {"measurement": "mutagenic call", "setting": "[1]", "result": "inactive; negative"},
      {"measurement": "mutagenic call", "setting": "Test System: AMES SALMONELLA TYPHIMURIUM, Strain/Indicator: TA100, Metabolic Activation: RAT, LIVER, S-9, AROCLOR 1254 (10 OR 30%), Method: PREINCUBATION", "result": "inactive; negative"},
      {"measurement": "mutagenic call", "setting": "Test System: AMES SALMONELLA TYPHIMURIUM, Strain/Indicator: TA1535, Metabolic Activation: HAMSTER, LIVER, S-9, AROCLOR 1254 (10 OR 30%), Method: PREINCUBATION", "result": "inactive; negative"},
      {"measurement": "mutagenic call", "setting": "Test System: AMES SALMONELLA TYPHIMURIUM, Strain/Indicator: TA1535, Metabolic Activation: NONE, Method: PREINCUBATION", "result": "inactive; negative"},
      {"measurement": "mutagenic call", "setting": "Test System: AMES SALMONELLA TYPHIMURIUM, Strain/Indicator: TA1535, Metabolic Activation: RAT, LIVER, S-9, AROCLOR 1254 (10 OR 30%), Method: PREINCUBATION", "result": "inactive; negative"},
      {"measurement": "mutagenic call", "setting": "Test System: AMES SALMONELLA TYPHIMURIUM, Strain/Indicator: TA1537, Metabolic Activation: HAMSTER, LIVER, S-9, AROCLOR 1254 (10 OR 30%), Method: PREINCUBATION", "result": "inactive; negative"},
      {"measurement": "mutagenic call", "setting": "Test System: AMES SALMONELLA TYPHIMURIUM, Strain/Indicator: TA1537, Metabolic Activation: NONE, Method: PREINCUBATION", "result": "inactive; negative"},
      {"measurement": "mutagenic call", "setting": "Test System: AMES SALMONELLA TYPHIMURIUM, Strain/Indicator: TA1537, Metabolic Activation: RAT, LIVER, S-9, AROCLOR 1254 (10 OR 30%), Method: PREINCUBATION", "result": "inactive; negative"}
    ]}
  ]
}
